Experimental data: patent EP0694535A1, “Non-peptidyl tachykinin receptor antagonists” (ELI LILLY AND COMPANY, priority 1994, dated 1996)
Structures can show the parent of a compound that is named as a salt.

biological target: T1, NK-1 receptor (Homo sapiens, UniProt P25103); experiment: NK-1 Receptor Binding Assay (competition with labeled substance P on IM9 cells); conditions: @ 20μM, inhibition of substance P binding to the NK-1 receptor, read-out: Percent Inhibition
T1 construct: an aliquot of IM9 cells; endogenous in cells; host or cells: IM9 cells (whole cells)
Procedure: Radioreceptor binding assays were performed using a derivative of a previously published protocol. D.G. Payan, et al., Journal of Immunology, 133:3260-3265 (1984). In this assay an aliquot of IM9 cells (1 x 10⁶ cells/tube in […] medium supplemented with 10% fetal calf serum) was incubated with 20 pM […] substance P in the presence of increasing competitor concentrations for 45 minutes at 4°C.
The IM9 cell line is a well-characterized cell line which is readily available to the public. See. e.g., Annals of the New York Academy of Science, 190: 221-234 (1972); Nature (London), 251:443-444 (1974); Proceedings of the National Academy of Sciences (USA), 71:84-88 (1974). These cells were routinely cultured in RPMI 1640 supplemented with 50 µg/ml gentamicin sulfate and 10% fetal calf serum.
The reaction was terminated by filtration through a glass fiber filter harvesting system using filters previously soaked for 20 minutes in 0.1% polyethylenimine. Specific binding of labeled substance P was determined in the presence of 20 nM unlabeled ligand.
Column 1 provides the example number of the test antagonist compound. The next columns detail the substitution patterns of the test compound.

T1 sequence (P25103 whole entry): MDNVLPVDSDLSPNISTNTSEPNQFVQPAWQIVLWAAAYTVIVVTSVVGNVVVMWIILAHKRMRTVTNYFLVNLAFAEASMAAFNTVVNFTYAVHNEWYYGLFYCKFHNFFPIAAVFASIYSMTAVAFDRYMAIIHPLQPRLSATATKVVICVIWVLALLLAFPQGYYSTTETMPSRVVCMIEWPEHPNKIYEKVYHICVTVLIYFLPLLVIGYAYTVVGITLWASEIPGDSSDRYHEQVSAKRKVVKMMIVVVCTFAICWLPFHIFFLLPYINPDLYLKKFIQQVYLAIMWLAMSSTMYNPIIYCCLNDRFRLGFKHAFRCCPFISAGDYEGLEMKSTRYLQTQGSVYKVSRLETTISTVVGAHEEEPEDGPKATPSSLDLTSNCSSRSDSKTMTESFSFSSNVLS

Row | Compound | inhibition at 20 µM
1 | c1ccc(Cc2nc3ccccc3n2-c2ccccc2)cc1 [Example 3, 1-phenyl-2-phenylmethylbenzimidazole] | 30%
2 | Clc1ccc(-c2nc3ccccc3n2-c2ccc(Cl)cc2)cc1 [Example 11, 1-(4-chlorophenyl)-2-(4-chlorophenyl)-benzimidazole] | 19%
3 | Cc1ccc(-c2nc3ccccc3n2-c2ccccc2)cc1 [Example 18, 1-phenyl-2-(4-methylphenyl)benzimidazole] | 37%
4 | Clc1ccccc1-c1nc2ccccc2n1-c1ccccc1 [Example 22, 1-phenyl-2-(2-chlorophenyl)benzimidazole] | 65%
5 | CN(C)CCn1c(-c2ccccc2)nc2ccccc21 [Example 26, 1-dimethylaminoethyl-2-phenylbenzimidazole dihydrochloride] | 0%
6 | FC(F)(F)c1ccccc1-c1nc2ccccc2n1-c1ccccc1 [Example 36, 1-phenyl-2-(2-trifluoromethylphenyl)-benzimidazole] | 43%

Further lines, results first:

Row | inhibition at 20 µM | Compound
7 | 25% | c1ccc(-c2nc3ccccc3n2-c2ccccc2)cc1 [Example 1, 1,2-diphenylbenzimidazole]
8 | 38% | COc1ccc(-c2nc3ccccc3n2-c2ccccc2)cc1 [Example 2, 1-phenyl-2-(4-methoxyphenyl)benzimidazole]
9 | 38% | Clc1ccc(-c2nc3ccccc3n2-c2ccccc2)cc1 [Example 5, 1-phenyl-2-(4-chlorophenyl)benzimidazole]
10 | 11% | Clc1ccc(-n2c(-c3ccccc3)nc3ccccc32)cc1 [Example 8, 1-(4-chlorophenyl)-2-phenylbenzimidazole]
11 | 15% | FC(F)(F)c1cccc(-c2nc3ccccc3n2-c2ccccc2)c1 [Example 9, 1-phenyl-2-(3-trifluoromethylphenyl)-benzimidazole]
12 | 17% | COc1ccc(-c2nc3ccccc3n2-c2ccc(Cl)cc2)cc1 [Example 17, 1-(4-chlorophenyl)-2-(4-methoxyphenyl)benzimidazole]
13 | 26% | c1ccc(-n2c(C3CCCCC3)nc3ccccc32)cc1 [Example 21, 1-phenyl-2-cyclohexylbenzimidazole]
14 | 51% | Cc1ccccc1-c1nc2ccccc2n1-c1ccccc1 [Example 23, 1-phenyl-2-(2-methylphenyl)benzimidazole]
15 | 16% | c1ccc(-c2nc3ccccc3n2CCN2CCCCC2)cc1 [Example 28, 1-(piperidin-1-ylethyl)-2-phenylbenzimidazole dihydrochloride]
16 | 67% | Oc1ccc(-c2nc3ccccc3n2-c2ccccc2)cc1 [Example 29, 1-phenyl-2-(4-hydroxyphenyl)benzimidazole]
17 | 79% | O=[N+]([O-])c1cc(-c2nc3ccccc3n2-c2ccccc2)ccc1Cl [Example 30, 1-phenyl-2-(3-nitro-4-chlorophenyl)-benzimidazole]
18 | 51% | CCCCCc1nc2ccccc2n1-c1ccccc1 [Example 35, 1-phenyl-2-pentylbenzimidazole hydrochloride]

same assay, conditions: at 10μM, inhibition of substance P binding to the NK-1 receptor, read-out: Percent Inhibition

Row | Compound | inhibition at 10 µM
19 | COc1cccc(Cn2c(-c3cccc(C)c3)nc3ccccc32)c1 [Example 65, 1-(3-Methoxybenzyl)-2-(3-methylphenyl)benzimidazole] | 58%
20 | Cc1cccc(-c2nc3ccccc3n2Cc2cccc(O)c2)c1 [Example 67, 1-(3-hydroxybenzyl)-2-(3-methylphenyl)benzimidazole hydrobromide] | 60%

Second part, the compound after the results:

Row | inhibition at 10 µM | Compound
21 | 36% | Cc1cccc(-c2nc3ccccc3n2Cc2ccc(Cl)cc2Cl)c1 [Example 63, 1-(2,4-Dichlorobenzyl)-2-(3-methylphenyl)benzimidazole]
22 | 34% | COc1ccc(Cn2c(-c3cccc(C)c3)nc3ccccc32)cc1 [Example 66, 1-(4-Methoxybenzyl)-2-(3-methylphenyl)benzimidazole]

same assay, conditions: concentration which inhibits fifty percent of the binding of substance P, 20 pM labeled substance P, 45 minutes at 4°C

Row | Compound | IC50
23 | Clc1cccc(-c2nc3ccccc3n2-c2ccccc2)c1 [Example 4, 1-phenyl-2-(3-chlorophenyl)benzimidazole] | 7 µM
24 | O=[N+]([O-])c1ccc(-c2nc3ccccc3n2-c2ccccc2)cc1 [Example 7, 1-phenyl-2-(4-nitrophenyl)benzimidazole] | 9.12 µM
25 | FC(F)(F)c1ccc(-c2nc3ccccc3n2-c2ccccc2)cc1 [Example 12, 1-phenyl-2(4-trifluoromethylphenyl)-benzimidazole] | 6.72 µM
26 | COc1cc(OC)cc(-c2nc3ccccc3n2-c2ccccc2)c1 [Example 14, 1-phenyl-2-(3,5-dimethoxyphenyl)benzimidazole] | 1.54 µM
27 | COc1ccc(-c2nc3ccccc3n2-c2ccccc2)cc1OC [Example 15, 1-phenyl-2-(3,4-dimethoxyphenyl)benzimidazole] | 2.98 µM
28 | COc1cc(-c2nc3ccccc3n2-c2ccccc2)cc(OC)c1OC [Example 16, 1-phenyl-2-(3,4,5-trimethoxyphenyl)-benzimidazole] | 0.64 µM
29 | Cc1cccc(-c2nc3ccccc3n2-c2ccccc2)c1 [Example 19, 1-phenyl-2-(3-methylphenyl)benzimidazole] | 1.1 µM
30 | COc1ccccc1-c1nc2ccccc2n1-c1ccccc1 [Example 24, 1-phenyl-2-(2-methoxyphenyl)benzimidazole] | 8.67 µM
31 | Oc1cccc(-c2nc3ccccc3n2-c2ccccc2)c1 [Example 34, 1-phenyl-2-(3-hydroxyphenyl)benzimidazole] | 12 µM
32 | COc1ccc2c(c1)nc(-c1cc(OC)c(OC)c(OC)c1)n2Cc1ccccc1 [Example 38, 1-phenylmethyl-2-(3,4,5-trimethoxyphenyl)-5-methoxybenzimidazole] | 1.05 µM
33 | COc1ccc2nc(-c3cc(OC)c(OC)c(OC)c3)n(Cc3ccccc3)c2c1 [Example 39, 1-phenylmethyl-2-(3,4,5-trimethoxyphenyl)-6-methoxybenzimidazole] | 0.427 µM
34 | COc1cc(-c2nc3ccc(OC(C)CN(C)C)cc3n2Cc2ccccc2)cc(OC)c1OC (centres unmarked) [Example 78] | 0.151 µM
35 | COc1cc(-c2nc3ccc(OCCN4CCN(C)CC4)cc3n2Cc2ccccc2)cc(OC)c1OC [Example 83, 1-benzyl-2-(3,4,5-trimethoxyphenyl)-6-[2-(4-methyl-1-piperazinyl)ethoxy]benzimidazole] | 0.098 µM

The next lines start with the values.

Row | IC50 | Compound
36 | 3.29 µM | COc1cccc(-c2nc3ccccc3n2-c2ccccc2)c1 [Example 6, 1-phenyl-2-(3-methoxyphenyl)benzimidazole]
37 | 5 µM | O=[N+]([O-])c1cccc(-c2nc3ccccc3n2-c2ccccc2)c1 [Example 10, 1-phenyl-2-(3-nitrophenyl)benzimidazole]
38 | 6.91 µM | c1ccc(-n2c(-c3ccc4ccccc4c3)nc3ccccc32)cc1 [Example 13, 1-phenyl-2-(2-naphthyl)benzimidazole]
39 | 3.47 µM | N#Cc1ccc(-c2nc3ccccc3n2-c2ccccc2)cc1 [Example 20, 1-phenyl-2-(4-cyanophenyl)benzimidazole]
40 | 3.27 µM | N#Cc1cccc(-c2nc3ccccc3n2-c2ccccc2)c1 [Example 25, 1-phenyl-2-(3-cyanophenyl)benzimidazole]
41 | 6.61 µM | Clc1ccc(-c2nc3ccccc3n2-c2ccccc2)cc1Cl [Example 27, 1-phenyl-2-(3,4-dichlorophenyl)benzimidazole]
42 | 10 µM | CCCc1nc2ccccc2n1-c1ccccc1 [Example 32, 1-phenyl-2-propylbenzimidazole]
43 | 3.98 µM | c1ccc(-n2c(-c3cccs3)nc3ccccc32)cc1 [Example 33, 1-phenyl-2-(thien-2-yl)benzimidazole]
44 | 1.13 µM | COc1cc(-c2nc3ccc(O)cc3n2Cc2ccccc2)cc(OC)c1OC [Example 69, 1-benzyl-2-(3,4,5-trimethoxyphenyl)-6-(hydroxy)-benzimidazole hydrochloride]
45 | 0.097 µM | COc1cc(-c2nc3ccc(OCCN(C)C)cc3n2Cc2ccccc2)cc(OC)c1OC [Example 79, 1-benzyl-2-(3,4,5-trimethoxyphenyl)-6-[2-(N,N-dimethylamino)ethoxy]benzimidazole]
46 | 0.123 µM | COc1cc(-c2nc3ccc(OCCCN(C)C)cc3n2Cc2ccccc2)cc(OC)c1OC [Example 80, 1-benzyl-2-(3,4,5-trimethoxyphenyl)-6-[3-(N,N-dimethylamino)propoxy]benzimidazole]
47 | 0.04 µM | COc1cc(-c2nc3ccc(OCCN(C(C)C)C(C)C)cc3n2Cc2ccccc2)cc(OC)c1OC [Example 81, 1-benzyl-2-(3,4,5-trimethoxyphenyl)-6-[2-(N,N-diisopropylamino)ethoxy]benzimidazole]
